According to patent US11667674B2, “Antibacterial cyclic lipopeptides” (priority 2016, dated 2023):
Values after ≈ are worked out from the molar mass of the structure shown. Read-outs that look alike come from different tables or passages of the source.

What was measured:
[1] = tested on: MRSA ATCC33591; test: Neutropenic mouse thigh infection model; format: in vivo, S. aureus; parameters: Δ (thigh c.f.u. versus control): unit not given here; conditions: for Thigh colony-forming units (c.f.u): neutropenic ICR mice, thighs at 24 h, X ± SD, n = 5
Description: Compound 1 was tested against MRSA ATCC33591 in a neutropenic mouse thigh infection model. Both female and male ICR mice were rendered neutropenic by cyclophosphamide (three consecutive doses of 150 mg per kg delivered before infection). At day 4, bacteria were resuspended in sterile saline, 0.1 ml inoculum (MRSA ATCC33591, 5.0×10^6 c.f.u/ml) was injected into the left thighs of mice. At 2 h post-infection, mice received treatment with Compound 1 at 0.63, 1.25, 2.5, 5.0 mg per kg administered in a single dose (10 ml/kg), intravenous injection (five mice per group). At 24 h post-infection, the left thighs were aseptically removed, weighed, homogenized, serially diluted and plated on trypticase soy agar for c.f.u titres.

[2] = tested on: MRSA ATCC43300; test: Right-sided endocarditis rat model; format: in vivo, S. aureus; conditions: for Log10 (CFU/g) of vegetation / Vegetation weight: Sprague-Dawley rats, 1 time/day for 2 days, 3 animals
Description: Male Sprague-Dawley rats (280-300 g) were intraperitoneally anesthetized with sodium pentobarbital solution (40 mg/kg). The rat chin area was treated with 75% alcohol. The right carotid artery was exposed through an anterior incision just slight right of midline above the calvicles. Polyethylene tubing was placed over 4-4.5 cm guided wire and passed within the right carotid artery into the left ventricle until resistance was met. Cardiac pulsations of the catheter indicated proper placement of the catheter tip at the apex of the heart. 0.5 ml inoculum of the overnight cultures (ATCC43300m 3.5×10^4 c.f.u./mL) was injected through a tail vein. After 24 hours of infection, the surviving rats were randomly divided into control group and treatment group. Compound 1 and daptomycin was administered via tail vein for 2 days (1 time/day). 24 h after the last administration, the animals were anesthetized and sacrificed. Vegetations and tissue samples were excised, weighed, homogenized, serially diluted and plated on trypticase soy agar for c.f.u titres.

[3] = tested on: Clostridium difficile ATCC43255; test: in vitro anti-Clostridium difficile MIC, standard broth dilution method; format: cell-based
Description: (§1) Anti-Clostridium difficile activity of compound 1 was tested on two strains, C. difficile BAA-1382 and […], using the standard broth dilution method as described by the Clinical Laboratory Standard Institute.

[4] = tested on: Clostridium difficile ATCCBAA-1382; test: as above; format: cell-based; conditions: for MIC: Clostridium difficile ATCCBAA-1382; for anti-Clostridium difficile activity compared with vancomycin and daptomycin: in words, both strains of Table 3
Description: as §1

[5] = tested on: MRSA ATCC 33591
[6] = 0.63 mg/kg single i.v. dose 2 h post-infection
[7] = 1.25 mg/kg single i.v. dose 2 h post-infection
[8] = 2.50 mg/kg single i.v. dose 2 h post-infection
[9] = 5.00 mg/kg single i.v. dose 2 h post-infection
[10] = Clostridium difficile ATCC43255

In the case of `CCCCCCCCCC(=O)N[C@@H](Cc1c[nH]c2ccccc12)C(=O)N[C@H](CC(N)=O)C(=O)N[C@@H](CC(=O)O)C(=O)N[C@@H]1C(=O)NCC(=O)N[C@@H](CCCN)C(=O)N[C@@H](CC(=O)O)C(=O)N[C@H](C)C(=O)N[C@@H](CC(=O)O)C(=O)NCC(=O)N[C@H](CO)C(=O)N[C@@H](C(C)CC(=O)O)C(=O)N[C@@H](CC(=O)c2ccccc2NC)C(=O)O[C@@H]1C` (some centres unmarked) [Compound 1], the “Δ (thigh c.f.u. versus control)” value ([1]; 0.63 mg/kg) is reported as 0.97, the “Δ (thigh c.f.u. versus control)” value ([1]; 1.25 mg/kg) is reported as 1.77 and the “Δ (thigh c.f.u. versus control)” value ([1]; 2.50 mg/kg) is reported as 3.15. For the same molecule, the “Δ (thigh c.f.u. versus control)” value ([1]; 5.00 mg/kg) was 5.18, the “antibacterial activity compared with daptomycin” value ([1]; doses of 1.25 and 2.50 mg/kg, mice with thigh infected with S. aureus) was “significantly better antibacterial activity” and the “Thigh colony-forming units (c.f.u)” value [1, 6] was 7.93 ± 0.85 log(CFU/thigh). For the same molecule, the “Thigh colony-forming units (c.f.u)” value [1, 7] was 7.13 ± 0.25 log(CFU/thigh), the “Thigh colony-forming units (c.f.u)” value [1, 8] was 5.75 ± 0.35 log(CFU/thigh) and the “Thigh colony-forming units (c.f.u)” value [1, 9] was 3.72 ± 0.35 log(CFU/thigh). For the same molecule, the “Δ (Log10 CFU/g of vegetation versus control)” value ([2]; 20 mg/kg) was 1.78, the “Log10 (CFU/g) of vegetation” value ([2]; 20 mg/kg via tail vein) was 7.53 ± 1.08 Log10 (CFU/g) and the Vegetation weight ([2]; 20 mg/kg via tail vein) was 0.012 ± 0.002 g. For the same molecule, the “infection of S. aureus compared with the control groups and daptomycin” value ([2]; right-sided endocarditis rats) was “significantly decrease the infection of S. aureus”, the MIC [3, 10] was 0.5 µg/mL (≈ 0.306 µM) and the MIC [4] was 0.5 µg/mL (≈ 0.306 µM). For the same molecule, the “anti-Clostridium difficile activity compared with vancomycin and daptomycin” value [4] was “better activities than vancomycin and daptomycin” and the MIC [5] was 0.5 µg/mL (≈ 0.306 µM).
`CCCCCc1ccc(/C(C)=C/C(=O)N[C@@H](Cc2c[nH]c3ccccc23)C(=O)N[C@H](CC(N)=O)C(=O)N[C@@H](CC(=O)O)C(=O)N[C@@H]2C(=O)NCC(=O)N[C@@H](CCCN)C(=O)N[C@@H](CC(=O)O)C(=O)N[C@H](C)C(=O)N[C@@H](CC(=O)O)C(=O)NCC(=O)N[C@H](CO)C(=O)N[C@@H](C(C)CC(=O)O)C(=O)N[C@@H](CC(=O)c3ccccc3NC)C(=O)O[C@@H]2C)cc1` (some centres unmarked) [Compound 7] was tested, and the MIC [3, 10] was 0.25 µg/mL (≈ 0.148 µM), the MIC [4] was 0.25 µg/mL (≈ 0.148 µM) and the “anti-Clostridium difficile activity compared with vancomycin and daptomycin” value [4] was “better activities than vancomycin and daptomycin”.
For `CCCCCCCCCC(=O)N[C@@H](Cc1c[nH]c2ccccc12)C(=O)N[C@H](CC(N)=O)C(=O)N[C@@H](CC(=O)O)C(=O)N[C@@H]1C(=O)NCC(=O)N[C@@H](CCCN)C(=O)N[C@@H](CC(=O)O)C(=O)N[C@H](C)C(=O)N[C@@H](CC(=O)O)C(=O)NCC(=O)N[C@H](CO)C(=O)N[C@@H]([C@H](C)CC(=O)O)C(=O)N[C@@H](CC(=O)c2ccccc2N)C(=O)O[C@@H]1C` [daptomycin, reference compound], the “Δ (thigh c.f.u. versus control)” value ([1]; 0.63 mg/kg) was 0.88, the “Δ (thigh c.f.u. versus control)” value ([1]; 1.25 mg/kg) was 1.09 and the “Δ (thigh c.f.u. versus control)” value ([1]; 2.50 mg/kg) was 1.97. The “Δ (thigh c.f.u. versus control)” value ([1]; 5.00 mg/kg) was 4.97, the “Thigh colony-forming units (c.f.u)” value [1, 6] was 8.02 ± 0.48 log(CFU/thigh) and the “Thigh colony-forming units (c.f.u)” value [1, 7] was 7.81 ± 0.37 log(CFU/thigh). The “Thigh colony-forming units (c.f.u)” value [1, 8] was 6.93 ± 0.57 log(CFU/thigh), the “Thigh colony-forming units (c.f.u)” value [1, 9] was 3.93 ± 0.84 log(CFU/thigh) and the “Δ (Log10 CFU/g of vegetation versus control)” value ([2]; 40 mg/kg) was 0.73. The “Log10 (CFU/g) of vegetation” value ([2]; 40 mg/kg via tail vein) was 8.58 ± 0.55 Log10 (CFU/g), the Vegetation weight ([2]; 40 mg/kg via tail vein) was 0.007 ± 0.001 g and the MIC [3, 10] was 1 µg/mL (≈ 0.617 µM). The MIC [4] was 1 µg/mL (≈ 0.617 µM) and the MIC [5] was 1 µg/mL (≈ 0.617 µM).
With `CCCCCc1ccc(/C(C)=C/C(=O)N[C@@H](Cc2c[nH]c3ccccc23)C(=O)N[C@H](CC(N)=O)C(=O)N[C@@H](CC(=O)O)C(=O)N[C@@H]2C(=O)NCC(=O)N[C@@H](CCCN)C(=O)N[C@@H](CC(=O)O)C(=O)N[C@H](C)C(=O)N[C@@H](CC(=O)O)C(=O)NCC(=O)N[C@H](CO)C(=O)N[C@@H]([C@H](C)CC(=O)O)C(=O)N[C@@H](CC(=O)c3ccccc3N)C(=O)O[C@@H]2C)cc1` [surotomycin, reference compound] the MIC [3, 10] was 0.5 µg/mL (≈ 0.297 µM) and the MIC [4] was 0.5 µg/mL (≈ 0.297 µM).
Molecule `CN[C@H](CC(C)C)C(=O)N[C@H]1C(=O)N[C@@H](CC(N)=O)C(=O)N[C@H]2C(=O)N[C@H]3C(=O)N[C@H](C(=O)N[C@H](C(=O)O)c4cc(O)cc(O)c4-c4cc3ccc4O)[C@H](O)c3ccc(c(Cl)c3)Oc3cc2cc(c3O[C@@H]2O[C@H](CO)[C@@H](O)[C@H](O)[C@H]2O[C@H]2C[C@](C)(N)[C@H](O)[C@H](C)O2)Oc2ccc(cc2Cl)[C@H]1O` [vancomycin, reference compound] has an MIC ([3]; Clostridioides difficile, ATCC43255) of 1 µg/mL (≈ 0.69 µM) and an MIC ([4]; Clostridioides difficile, ATCCBAA1382, read-out: MIC) of 1 µg/mL (≈ 0.69 µM).
